Measurements reported in patent publication US3996229A, “1-[10,11-Dihydro-dibenzo[b,f]-thiepin-10-yl]-4-(alkynylalkyl)-piperazines” (Hoffmann-La Roche Inc., priority 1974, dated 1976).

What was measured:
mouse = experiment: Acute toxicity in the mouse; format: in vivo; details: acute toxicity, 24 hours
Method: (§1) The values relate to a duration of activity over a period of 24 hours: […]

rats [1] = experiment: Catalepsy Test; format: in vivo, rat; details: rats, intraperitoneally
Method: (§2) Representative dibenzo[b,f]thiepin derivatives of this invention were administered intraperitoneally to rats. The animals are considered to be cataleptic when the homolateral extremities remain in a crossed position for at least 10 seconds. The number of cataleptic animals is noted every 30 minutes for 6 hours.

rats [2] = experiment: "Pole Climbing" Test (neuroleptic properties; blocking of conditioned and unconditioned reaction); format: in vivo, rat; details: for Quotient ED10 (blocking of the unconditioned reaction)/ED50 (blocking of the conditioned reaction) / ED50: rats; for Quotient ED10 (blocking of the unconditioned reaction)/ED50 (blocking of the conditioned reaction): p.o., higher quotient = greater selectivity of the neuroleptic action; for ED50: Rattus norvegicus, po, pole climbing, conditioned impulse (acoustic signal)
Method: The neuroleptic properties of the foregoing derivatives were determined numerically on the basis of the following test, i.e., the "pole climbing" test.
This test provides information about the behavior reaction of rats. Rats are trained to avoid, by climbing up a vertical pole in the test chamber, an electrical impulse--unconditioned impulse--released via the wire-latticed floor some seconds after an acoustic signal--conditioned impulse--.
The blocking of the conditioned reaction is designated by the parameter ED50 (mg/kg p.o.) and the blocking of the unconditioned reaction is designated by the parameter ED10 (mg/kg p.o.).
The parameter ED50 --blocking of the conditioned reaction--provides a measure of the neuroleptic activity strength of the derivative under investigation since, with falling value, the neuroleptic activity strength increases.

[3] = Acute toxicity in the mouse; format: in vivo; details: in vivo, po, period of 24 hours
Method: as §1

Catalepsy Test = format: in vivo, rat; details: rat, in vivo, ip
Method: as §2

[4] = pole climbing test, chlorpromazine compared with Derivative A and Derivative B

SMILES	toxicity (in words) (mouse)	cataleptic side-effects (in words) (rats [1])	neuroleptic activity (in words) (rats [2]; [4])	quality (selectivity) of the neuroleptic activity (in words) (rats [2]; [4])	Quotient ED10 (blocking of the unconditioned reaction)/ED50 (blocking of the conditioned reaction) (rats [2])	LD50 at 24 h [3]	TD50 at 6 h (Catalepsy Test)	ED50 (rats [2])
CN(C)CCCN1c2ccccc2Sc2ccc(Cl)cc21 [Chlorpromazine, reference compound]	clearly inferior	considerably greater cataleptic activity	somewhat stronger activity	clearly inferior	2.5			
C#CCN1CCN(C2Cc3ccc(OC)cc3Sc3ccc(SC)cc32)CC1.Cl.Cl (stereo not drawn) [Derivative A, 1-[10,11-Dihydro-3-methoxy-8-methylthio-dibenzo[b,f]thiepin-10-yl]-4-(2-propynyl)-piperazine dihydrochloride]		only very slight or no cataleptic side-effects			9	900 mg/kg	88 mg/kg	17 mg/kg
C#CCN1CCN(C2Cc3ccc(OC)cc3Sc3ccc(Cl)cc32)CC1.CS(=O)(=O)O.CS(=O)(=O)O (stereo not drawn) [Derivative B, 1-[8-Chloro-10,11-dihydro-3-methoxy-dibenzo[b,f]thiepin-10-yl]-4-(2-propynyl)-piperazine dimethanesulfonate]		only very slight or no cataleptic side-effects			4	750 mg/kg	> 100 mg/kg	25 mg/kg
